Each structure is given as a SMILES string. Structures can show the parent of a compound that is named as a salt.

One test relates to PAKT/PKB (p-(S473) AKT) in H209 small cell lung carcinoma cells stimulated with Stem Cell Factor. Kind of test: PAKT/PKB Cytoblot Assay with H209 cells (SCF-stimulated p-(S473) AKT). As to conditions: Homo sapiens, NCI-H209, compound 1 hour, SCF 25 ng/mL 5 minutes, group: between 500 nM and 1 μM (units in value). In kind it is cell-based. How it is done:
PAKT/PKB Cytoblot Assay Protocol with H209 Cells
H209 small cell lung carcinoma cells in log phase were plated at 50,000 cells/well in 96-well poly-lysine coated, clear bottom/black-sided plates (BD Cat # 354640) in 100 μl RPMI medium containing 0.1% (w/v) BSA, and incubated overnight at 37° C. in 5% CO2 incubator. The following day, compounds (10 mM stock solutions in DMSO) were added to the plates to generate final concentrations of 0.0, 0.01, 0.03, 0.1, 0.3, 1.0, 3.0 and 10 μM for IC50 determinations and incubated for 1 hour at 37° C. Cells were then left untreated or stimulated with Stem Cell Factor (SCF: Biosource Cat # PHC2116) at a final concentration of 25 ng/mL for 5 minutes at 37° C. in 5% CO2 incubator. The media was then removed using a vacuum manifold and the cells were washed once with Tris Buffered Saline (TBS).
Cells were then fixed by adding 200 μl of cold 3.7% (v/v) formaldehyde in TBS to each well for 15 minutes at 4° C. After removal of the formaldehyde, the cells were treated with the addition of 50 μl of methanol (at −20° C.) to each well for 5 minutes. After removal of the methanol, […] of 1% (w/v) BSA in TBS was added to each well to block non-specific antibody binding sites and the plate was incubated at room temperature for 30 minutes.
After removal of the blocking buffer, 50 μl of p-(S473) AKT rabbit polyclonal antibody (Cell Signaling Cat # 9277S) was added at a dilution of 1:250 in 0.1% (w/v) BSA in TBS, and the plate was incubated at room temperature for 1 hour. Plates were then washed 3 times with cold TBS containing 0.05% (v/v) Tween 20 (TBS-T) and […] of Horseradish peroxidase (HRP)-conjugated goat-anti-rabbit antibody (Amersham Cat # NA934V) at a dilution of 1:250 in TBS-T was added and the plate was incubated at room temperature for 1 h. After washing with ice-cold TBS-T four times, 100 μl of Enhanced Chemiluminescence (ECL) reagent (Amersham Cat# RPN2209) was added to each well and mixed on a mini-orbital shaker for 1 min. The plate was then read on a Perkin Elmer Victor 5 Multilabel Counter (#1420-0421).
`COc1cccc(C(=O)Nc2ccc3c(c2)C(F)(F)OC(F)(F)O3)c1NCc1ccncc1` [Example 8, 3-methoxy-2-[(pyridin-4-ylmethyl)amino]-N-(2,2,4,4-tetrafluoro-4H-1,3-benzodioxin-6-yl)benzamide] registered an IC50 of 500 to 1000 nM.
Consider `O=C(Nc1ccc2c(c1)C(F)(F)OC(F)(F)O2)c1ccccc1NCc1ccnc(C2=NCCN2)c1` [Example 40, 2-({[2-(4,5-dihydro-1H-imidazol-2-yl)pyridin-4-yl]methyl}amino)-N-(2,2,4,4-tetrafluoro-4H-1,3-benzodioxin-6-yl)benzamide], for which the IC50 is 500 to 1000 nM.
Regarding `CCCCOCCCNC(=O)c1cc(CNc2ccccc2C(=O)Nc2ccc3c(c2)OC(F)(F)O3)ccn1` [Example 112, N-(3-butoxypropyl)-4-{[(2-{[(2,2difluoro-1,3-benzodioxol-5-yl)amino]carbonyl}phenyl)amino]methyl}pyridine-2-carboxamide], the IC50 fell in the range of 500 to 1000 nM.

The test is the same for the next values; noted with them: Homo sapiens, NCI-H209, compound 1 hour, SCF 25 ng/mL 5 minutes, group: between 1 and 3 μM.
Regarding `CN(CCCNC(=O)c1cc(CNc2ccccc2C(=O)Nc2ccc3c(c2)OC(F)(F)O3)ccn1)c1ccccc1` [Example 107, 4-{[(2-{[(2,2-difluoro-1,3-benzodioxol-5-yl)amino]carbonyl}phenyl)amino]methyl}-N-{3-[methyl(phenyl)amino]propyl}pyridine-2-carboxamide], the IC50 fell in the range of 1000 to 3000 nM.
On the same count and under the same terms, the value for `CSCC[C@@H](CO)NC(=O)c1cc(CNc2ccccc2C(=O)Nc2ccc3c(c2)OC(F)(F)O3)ccn1` [Example 127, 4-{[(2-{[(2,2-difluoro-1,3-benzodioxol-5-yl)amino]carbonyl}phenyl)amino]methyl}-N-[(1S)-1-(hydroxymethyl)-3-(methylthio)propyl]pyridine-2-carboxamide] was 1000 to 3000 nM; that for `Cc1cccc(CNC(=O)Nc2cc(CNc3ccccc3C(=O)Nc3ccc4c(c3)OC(F)(F)O4)ccn2)c1` [Example 171, N-(2,2-difluoro-1,3-benzodioxol-5-yl)-2-({[2-({[(3-methylbenzyl)amino]carbonyl}amino)pyridin-4-yl]methyl}amino)benzamide] was 1000 to 3000 nM.
On the same count and under the same terms, the figure for `CCN(CCNC(=O)c1cc(CNc2ccccc2C(=O)Nc2ccc3c(c2)OC(F)(F)O3)ccn1)c1cccc(C)c1` [Example 106, 4-{[(2-{[(2,2-difluoro-1,3-benzodioxol-5-yl)amino]carbonyl}phenyl)amino]methyl}-N-{2-[ethyl(3-methylphenyl)amino]ethyl}pyridine-2-carboxamide] is 1000 to 3000 nM.

The test is the same for the next values; noted with them: Homo sapiens, NCI-H209, compound 1 hour, SCF 25 ng/mL 5 minutes, group: less than 500 nM.
With `CNC(=O)c1cc(CNc2ccccc2C(=O)Nc2ccc3c(c2)OC(F)(F)C(F)(F)O3)ccn1` [Example 3, N-methyl-4-{[(2-{[(2,2,3,3-tetrafluoro-2,3-dihydro-1,4-benzodioxin-6-yl)amino]carbonyl}phenyl)amino]methyl}pyridine-2-carboxamide], the IC50 was < 500 nM.
As to `O=C(NCc1ccco1)Nc1cc(CNc2ccccc2C(=O)Nc2ccc3c(c2)OC(F)(F)O3)ccn1` [Example 173, N-(2,2-difluoro-1,3-benzodioxol-5-yl)-2-({[2-({[(2-furylmethyl)amino]carbonyl}amino)pyridin-4-yl]methyl}amino)benzamide], the IC50 is < 500 nM.
Still for that read-out and setting: the value for `CCOC(=O)c1cc(CNc2ccccc2C(=O)Nc2ccc3c(c2)OC(F)(F)O3)ccn1` [Example 82, Ethyl 4-{[(2-{[(2,2-difluoro-1,3-benzodioxol-5-yl)amino]carbonyl}phenyl)amino]methyl}pyridine-2-carboxylate] was < 500 nM; that for `CC(C)(CO)CNc1cc(CNc2ccccc2C(=O)Nc2ccc3c(c2)OC(F)(F)O3)ccn1` [Example 141, N-(2,2-difluoro-1,3-benzodioxol-5-yl)-2-[({2-[(3-hydroxy-2,2-dimethylpropyl)amino]pyridin-4-yl}methyl)amino]benzamide trifluoroacetate(salt)] was < 500 nM; that for `CS(=O)(=O)Nc1cc(CNc2ccccc2C(=O)Nc2ccc3c(c2)OC(F)(F)O3)ccn1` [Example 175, N-(2,2-difluoro-1,3-benzodioxol-5-yl)-2-[({2-[(methylsulfonyl)amino]pyridin-4-yl}methyl)amino]benzamide] was < 500 nM.
Consider `COC(=O)c1cc(CNc2ccccc2C(=O)Nc2ccc3c(c2)OC(F)(F)O3)ccn1` [Example 76, methyl 4-{[(2-{[(2,2-difluoro-1,3-benzodioxol-5-yl)amino]-carbonyl}phenyl)amino]methyl}pyridine-2-carboxylate], for which the IC50 was < 500 nM.
Same read-out and setting: the value for `COCCNc1cc(CNc2ccccc2C(=O)Nc2ccc3c(c2)OC(F)(F)O3)ccn1` [Example 135, N-(2,2-difluoro-1,3-benzodioxol-5-yl)-2-[({2-[(2-methoxyethyl)amino]pyridin-4-yl}methyl)amino]benzamide trifluoroacetate] was < 500 nM; that for `Nc1cc(CNc2ccccc2C(=O)Nc2ccc3c(c2)OC(F)(F)O3)ccn1` [Example 153, 2-{[(2-aminopyridin-4-yl)methyl]amino}-N-(2,2-difluoro-1,3-benzodioxol-5-yl)benzamide] was < 500 nM; that for `COc1ccc(OCC(O)CNC(=O)c2cc(CNc3ccccc3C(=O)Nc3ccc4c(c3)OC(F)(F)O4)ccn2)cc1` (stereo not shown) [Example 132, 4-{[(2-{[(2,2-difluoro-1,3-benzodioxol-5-yl)amino]carbonyl}phenyl)amino]methyl}-N-[2-hydroxy-3-(4-methoxyphenoxy)propyl]pyridine-2-carboxamide] was < 500 nM.
For `CCNC(=O)Nc1cc(CNc2ccccc2C(=O)Nc2ccc3c(c2)OC(F)(F)O3)ccn1` [Example 162, N-(2,2-difluoro-1,3-benzodioxol-5-yl)-2-{[(2-{[(ethylamino)carbonyl]amino}pyridin-4-yl)methyl]amino}benzamide], the IC50 was < 500 nM.
Same read-out and setting: the value for `COc1cccc(NCc2ccncc2)c1C(=O)Nc1ccc2c(c1)OC(F)(F)C(F)(F)O2` [Example 9, 2-methoxy-6-[(pyridin-4-ylmethyl)amino]-N-(2,2,3,3-tetrafluoro-2,3-dihydro-1,4-benzodioxin-6-yl)benzamide] was < 500 nM; that for `CN(C)CCCNc1cc(CNc2ccccc2C(=O)Nc2ccc3c(c2)OC(F)(F)O3)ccn1` [Example 143, N-(2,2-difluoro-1,3-benzodioxol-5-yl)-2-{[(2-{[3-(dimethylamino)propyl]amino}pyridin-4-yl)methyl]amino}benzamidebis(trifluoroacetate)] was < 500 nM.
Same read-out and setting: the figure for `O=C(NCCCCN1CCCC1)c1cc(CNc2ccccc2C(=O)Nc2ccc3c(c2)OC(F)(F)O3)ccn1` [Example 97, 4-{[(2-{[(2,2-difluoro-1,3-benzodioxol-5-yl)amino]carbonyl}phenyl)amino]methyl}-N-(4-pyrrolidin-1-ylbutyl)pyridine-2-carboxamide] is < 500 nM; for `O=C(Nc1ccc2c(c1)OC(F)(F)C(F)(F)O2)c1cc(F)ccc1NCc1ccncc1` [Example 19, 5-fluoro-2-[(pyridin-4-ylmethyl)amino]-N-(2,2,3,3-tetrafluoro-2,3-dihydro-1,4-benzodioxin-6-yl)benzamide] it is < 500 nM.
On the same count and under the same terms, the figure for `CNC(=O)c1cc(CNc2ccccc2C(=O)Nc2ccc3c(c2)OC(F)(F)O3)ccn1` [Example 24, 4-{[(2-{[(2,2-difluoro-1,3-benzodioxol-5-yl)amino]carbonyl}phenyl)amino]methyl}-N-methylpyridine-2-carboxamide] is < 500 nM; for `O=C(Nc1ccc2c(c1)C(F)(F)OC(F)(F)O2)c1ccccc1NCc1ccncc1` [Example 2, 2-[(pyridin-4-ylmethyl)amino]-N-(2,2,4,4-tetrafluoro-4H-1,3-benzodioxin-6-yl)benzamide] it is < 500 nM.
As to `CNc1cc(CNc2ccccc2C(=O)Nc2ccc3c(c2)OC(F)(F)O3)ccn1` [Example 139, N-(2,2-difluoro-1,3-benzodioxol-5-yl)-2-({[2-(methylamino)pyridin-4-yl]methyl}amino)benzamide trifluoroacetate], the IC50 is < 500 nM.
As for `COCCCNc1cc(CNc2ccccc2C(=O)Nc2ccc3c(c2)OC(F)(F)O3)ccn1` [Example 136, N-(2,2-difluoro-1,3-benzodioxol-5-yl)-2-[({2-[(3-methoxypropyl)amino]pyridin-4-yl}methyl)amino]benzamide trifluoroacetate], the IC50 is < 500 nM.

Values taken from patent US20080293696A1, “2-Aminoarylcarboxamides Useful as Cancer Chemotherapeutic Agents” (Bayer Pharmaceuticals Corporation, priority 2004, published 2008).
